Assay results published in ChEMBL document CHEMBL1201862, “PubChem BioAssay data set” (2004).
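Each compound was tested at five concentrations against cells in 96-well plates for 48 hours. The concentration for 50% growth inhibition is given as GI50.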 The source made the active and inactive calls. Rule as the data show it: active = GI50 up to about 1.1 µM and inactive = higher.

Key:
Assay in all cases: NCI tumour cell line growth inhibition, 48 h
A549 = system: A549
HOP-62 = system: HOP-62
CCRF-CEM = system: CCRF-CEM
SF-539 = system: SF-539
MOLT-4 = system: MOLT-4
OVCAR-8 = system: OVCAR-8
SN12C = system: SN12C
Malme-3M = system: Malme-3M
NCI-H23 = system: NCI-H23
LOX IMVI = system: LOX IMVI
SF-295 = system: SF-295
SK-MEL-5 = system: SK-MEL-5
SW-620 = system: SW-620
CAKI-1 = system: CAKI-1
KM-20L2 = system: KM-20L2
HT-29 = system: HT-29
NCI-H460 = system: NCI-H460
786-0 = system: 786-0
SR = system: SR
SNB-75 = system: SNB-75
ACHN = system: ACHN
HOP-18 = system: HOP-18
RXF 631 = system: RXF 631
KM12 = system: KM12
IGROV-1 = system: IGROV-1
HCC 2998 = system: HCC 2998
COLO 205 = system: COLO 205
M14 = system: M14
HCT-116 = system: HCT-116
DMS-273 = system: DMS-273
NCI-H522 = system: NCI-H522
SNB-19 = system: SNB-19
HCT-15 = system: HCT-15
SK-OV-3 = system: SK-OV-3
UO-31 = system: UO-31
DMS-114 = system: DMS-114
LXFL 529 = system: LXFL 529
OVCAR-3 = system: OVCAR-3
HOP-92 = system: HOP-92
HL-60 = system: HL-60
OVCAR-4 = system: OVCAR-4
EKVX = system: EKVX
UACC-62 = system: UACC-62
TK-10 = system: TK-10
SK-MEL-28 = system: SK-MEL-28
M19-MEL = system: M19-MEL
SF-268 = system: SF-268
UACC-257 = system: UACC-257
K562 = system: K562
NCI-H226 = system: NCI-H226
OVCAR-5 = system: OVCAR-5
DLD-1 = system: DLD-1
RPMI-8226 = system: RPMI-8226
SNB-78 = system: SNB-78
A498 = system: A498
U-251 = system: U-251
SK-MEL-2 = system: SK-MEL-2
RXF 393 = system: RXF 393

## O=C(Cc1nc2ccc(C(=O)c3ccccc3)cc2nc1O)C(=O)Nc1nc2ccccc2[nH]1
A549
  GI50: 50.9 µM (inactive)
HOP-62
  GI50: 33.3 µM (inactive)
CCRF-CEM
  GI50: 38.3 µM (inactive)
SF-539
  GI50: 71 µM (inactive)
MOLT-4
  GI50: 42.8 µM (inactive)
OVCAR-8
  GI50: 55.1 µM (inactive)
SN12C
  GI50: > 100 µM (inactive)
Malme-3M
  GI50: 87.9 µM (inactive)
NCI-H23
  GI50: 44.6 µM (inactive)
LOX IMVI
  GI50: 44 µM (inactive)
SF-295
  GI50: 28.4 µM (inactive)
SK-MEL-5
  GI50: 31 µM (inactive)
SW-620
  GI50: 42.9 µM (inactive)
CAKI-1
  GI50: 40.2 µM (inactive)
KM-20L2
  GI50: 63.5 µM (inactive)
HT-29
  GI50: 52.7 µM (inactive)
NCI-H460
  GI50: 46.5 µM (inactive)
786-0
  GI50: > 100 µM (inactive)
SR
  GI50: 11.7 µM (inactive)
SNB-75
  GI50: 31.7 µM (inactive)
ACHN
  GI50: 86.7 µM (inactive)
HOP-18
  GI50: 77.1 µM (inactive)
RXF 631
  GI50: 65.5 µM (inactive)
KM12
  GI50: 24.6 µM (inactive)
IGROV-1
  GI50: 93.5 µM (inactive)
HCC 2998
  GI50: > 100 µM (inactive)
COLO 205
  GI50: 36.8 µM (inactive)
M14
  GI50: 82.6 µM (inactive)
HCT-116
  GI50: 51.6 µM (inactive)
DMS-273
  GI50: 20.9 µM (inactive)
NCI-H522
  GI50: 30 µM (inactive)
SNB-19
  GI50: > 100 µM (inactive)
HCT-15
  GI50: 75 µM
SK-OV-3
  GI50: > 100 µM (inactive)
UO-31
  GI50: 60.3 µM (inactive)
DMS-114
  GI50: 23.8 µM (inactive)
LXFL 529
  GI50: 45.2 µM (inactive)
OVCAR-3
  GI50: 62.5 µM (inactive)
HOP-92
  GI50: 23 µM (inactive)
HL-60
  GI50: 35.8 µM (inactive)
OVCAR-4
  GI50: 61.7 µM (inactive)
EKVX
  GI50: > 100 µM (inactive)
UACC-62
  GI50: 38.7 µM (inactive)
TK-10
  GI50: 49.3 µM (inactive)
SK-MEL-28
  GI50: 98.6 µM (inactive)
M19-MEL
  GI50: 56.1 µM (inactive)
SF-268
  GI50: 67 µM (inactive)
UACC-257
  GI50: 84.5 µM (inactive)

## CCN(CC)CCNC(=O)c1ccccc1NC(=O)C(=O)Nc1ccccc1C(=O)NCCN(CC)CC
A549
  GI50: > 100 µM (inactive)
HOP-62
  GI50: > 100 µM (inactive)
CCRF-CEM
  GI50: 30.3 µM (inactive)
K562
  GI50: 16.4 µM (inactive)
SF-539
  GI50: 24.1 µM (inactive)
MOLT-4
  GI50: 30.2 µM (inactive)
OVCAR-8
  GI50: > 100 µM (inactive)
NCI-H226
  GI50: > 100 µM (inactive)
SN12C
  GI50: 60.5 µM (inactive)
Malme-3M
  GI50: 21 µM (inactive)
NCI-H23
  GI50: > 100 µM (inactive)
LOX IMVI
  GI50: 24.9 µM (inactive)
SF-295
  GI50: 42.5 µM (inactive)
SK-MEL-5
  GI50: 18.8 µM (inactive)
SW-620
  GI50: 18.5 µM (inactive)
CAKI-1
  GI50: > 100 µM (inactive)
KM-20L2
  GI50: 37.7 µM (inactive)
HT-29
  GI50: 34.6 µM (inactive)
NCI-H460
  GI50: 75 µM (inactive)
786-0
  GI50: 20.6 µM (inactive)
SR
  GI50: 21.8 µM (inactive)
SNB-75
  GI50: 47 µM (inactive)
ACHN
  GI50: 92.3 µM (inactive)
HOP-18
  GI50: > 100 µM (inactive)
OVCAR-5
  GI50: 94 µM (inactive)
RXF 631
  GI50: > 100 µM (inactive)
KM12
  GI50: 45.6 µM (inactive)
IGROV-1
  GI50: > 100 µM (inactive)
HCC 2998
  GI50: 32.5 µM (inactive)
COLO 205
  GI50: 14.1 µM (inactive)
M14
  GI50: 19.1 µM (inactive)
DLD-1
  GI50: 63.4 µM (inactive)
RPMI-8226
  GI50: > 100 µM (inactive)
HCT-116
  GI50: 17.5 µM (inactive)
DMS-273
  GI50: > 100 µM (inactive)
SNB-78
  GI50: > 100 µM (inactive)
NCI-H522
  GI50: 39.2 µM (inactive)
SNB-19
  GI50: > 100 µM (inactive)
HCT-15
  GI50: 49.9 µM
SK-OV-3
  GI50: > 100 µM (inactive)
UO-31
  GI50: > 100 µM (inactive)
DMS-114
  GI50: 32.2 µM (inactive)
OVCAR-3
  GI50: 62.7 µM (inactive)
HOP-92
  GI50: 31.4 µM (inactive)
HL-60
  GI50: 15.2 µM (inactive)
OVCAR-4
  GI50: 64.1 µM (inactive)
EKVX
  GI50: > 100 µM (inactive)
A498
  GI50: > 100 µM (inactive)
U-251
  GI50: 44.6 µM (inactive)
UACC-62
  GI50: > 100 µM (inactive)
TK-10
  GI50: > 100 µM (inactive)
SK-MEL-28
  GI50: 45.4 µM (inactive)
M19-MEL
  GI50: 22.8 µM (inactive)
SF-268
  GI50: > 100 µM (inactive)
UACC-257
  GI50: 18.6 µM (inactive)
SK-MEL-2
  GI50: 43 µM (inactive)

## COc1ccc(NC(=O)C(=O)C2NC(=S)NC2=O)c(OC)c1 (stereo unspecified)
A549
  GI50: > 100 µM (inactive)
HOP-62
  GI50: > 100 µM (inactive)
CCRF-CEM
  GI50: > 10 µM (inactive)
K562
  GI50: > 100 µM (inactive)
SF-539
  GI50: > 100 µM (inactive)
MOLT-4
  GI50: > 100 µM (inactive)
OVCAR-8
  GI50: > 100 µM (inactive)
NCI-H226
  GI50: > 100 µM (inactive)
SN12C
  GI50: > 100 µM (inactive)
Malme-3M
  GI50: > 100 µM (inactive)
NCI-H23
  GI50: > 100 µM (inactive)
LOX IMVI
  GI50: > 100 µM (inactive)
SF-295
  GI50: > 100 µM (inactive)
SW-620
  GI50: > 100 µM (inactive)
KM-20L2
  GI50: > 100 µM (inactive)
HT-29
  GI50: > 100 µM (inactive)
NCI-H460
  GI50: > 100 µM (inactive)
786-0
  GI50: > 100 µM (inactive)
SNB-75
  GI50: > 100 µM (inactive)
ACHN
  GI50: > 100 µM (inactive)
RXF 631
  GI50: > 100 µM (inactive)
KM12
  GI50: > 100 µM (inactive)
IGROV-1
  GI50: > 100 µM (inactive)
HCC 2998
  GI50: > 100 µM (inactive)
COLO 205
  GI50: > 100 µM (inactive)
M14
  GI50: > 100 µM (inactive)
DLD-1
  GI50: > 100 µM (inactive)
RPMI-8226
  GI50: > 100 µM (inactive)
HCT-116
  GI50: > 100 µM (inactive)
DMS-273
  GI50: > 100 µM (inactive)
SNB-78
  GI50: > 100 µM (inactive)
SNB-19
  GI50: > 100 µM (inactive)
HCT-15
  GI50: > 100 µM
SK-OV-3
  GI50: > 100 µM (inactive)
UO-31
  GI50: > 100 µM (inactive)
DMS-114
  GI50: > 100 µM (inactive)
LXFL 529
  GI50: > 100 µM (inactive)
RXF 393
  GI50: > 100 µM (inactive)
OVCAR-3
  GI50: > 100 µM (inactive)
HOP-92
  GI50: > 100 µM (inactive)
HL-60
  GI50: > 100 µM (inactive)
OVCAR-4
  GI50: > 100 µM (inactive)
EKVX
  GI50: > 100 µM (inactive)
A498
  GI50: > 100 µM (inactive)
U-251
  GI50: > 100 µM (inactive)
UACC-62
  GI50: > 100 µM (inactive)
TK-10
  GI50: > 100 µM (inactive)
SK-MEL-28
  GI50: > 100 µM (inactive)
M19-MEL
  GI50: > 100 µM (inactive)
SF-268
  GI50: > 100 µM (inactive)
UACC-257
  GI50: > 100 µM (inactive)
SK-MEL-2
  GI50: > 100 µM (inactive)
